Activity calls are given as the source filed them.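 How the source made its calls: active means compounds giving half or more protection of infected cells from virus-caused growth loss, again on retest; inactive means the rest.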
Tested on: CEM cells HIV-1 protection, formazan growth assay
Test: NCI AIDS Antiviral Assay
Conditions: for IC50: measured here: growth of uninfected CEM cells
Protocol: The ability of compounds to protect human CEM cells from HIV-1 infection is measured as a screen for new compounds capable of inhibiting the HIV virus. Five concentrations of drug were tested on uninfected and infected cells and cell growth was measured using a soluble formazan assay. […] Compounds that provided at least 50% protection were retested. Compounds that provided at least 50% protection on retest were listed as moderately active. Compounds that reproducibly provided 100% protection were listed as confirmed active. […] Note that the inability to provide protection could be due to toxicity.

Compound | EC50 [µM] | IC50 [µM] | outcome
CCOC(=O)C(=C/C=C/N[C@@H](Cc1c[nH]c2ccccc12)C(N)=O)C(=O)OCC | > 18.2 | > 18.2 | –
NC(Cc1ccccc1CP(=O)(O)O)C(=O)O (stereo not drawn) | > 200 | > 200 | –
COc1cccc(OC)c1OC(=O)Nc1ccccc1F | > 200 | > 200 | –
Nc1ncnc2c1ccn2COC(CO)CO | > 200 | > 200 | –
CC1/C(=N/O)CC(c2ccccc2)N(N=O)C1c1ccccc1 (stereo not drawn) | > 200 | 129 | –
CCN(CC)Cc1cc(Nc2ccnc3ccc4nn(C)nc4c23)ccc1O | > 603 | 15.8 | –
c1ccc2c(c1)cnc1c3ccccc3nn21 | > 17.4 | > 17.4 | –
O=c1[nH]c(=O)n(COCCO)c2ccsc12 | > 200 | > 200 | –
O=c1oc2c3ccc4ccccc4c3n(Cc3nc4ccccc4[nH]3)c2c2ccccc12 | > 8.32 | 4.68 | –
CCOC(=O)/C(C#N)=C/c1ccc2c(c1)CC1(C2)Cc2cc(CC)c(C(C)O)cc2C1 (stereo not drawn) | > 200 | 3.63 | –
CN1CC2(CCCCC2)C(O)C12C=CCCC2 (stereo not drawn) | > 380 | > 380 | –
CCCCNC(=S)/N=C/c1c(O)cc(C)oc1=O | > 200 | > 200 | –
O=C1Cc2c([nH]c3ccccc23)-c2cc(Br)ccc2N1 | > 41.7 | > 41.7 | –
c1cc(SSc2ccncc2)ccn1 | > 200 | 25.1 | –
COc1cc(OC)c(C2(c3c(OC(C)C)c(=O)c3=O)SCCCS2)cc1OC | > 200 | 170 | –
CCOP(C)(=O)C(Nc1ccc(F)cc1)c1ccc(F)cc1 (stereo not drawn) | > 200 | 166 | –
CN(C)CCN1C(=O)C2(C)C3CCC(O3)C2(C)C1=O (stereo not drawn) | 141 | 170 | –
CC(C)c1cccc(C(C)C)c1NC(=S)Nc1ccccc1 | – | – | inactive
CCOC(=O)Nc1nc2c(s1)c([N+](=O)[O-])cn2C | > 69.2 | 27.5 | –
COc1ccc(N=C/C=C/c2ccccc2)cc1 | > 21.9 | > 21.9 | –
NNC(=O)c1ccccc1NC(=O)/C(=C/c1ccccc1O)NC(=O)c1ccccc1 | > 200 | > 200 | –
CC(=O)OCC(c1ccccc1)N1C(=O)C(OC(C)=O)[C@H](OC(C)=O)C1=O (stereo partly drawn) | > 661 | > 661 | –
N#C/C(=C1/Sc2c(nc[nH]c2=O)N1c1ccccc1)c1nc2ccccc2[nH]1 | > 3.8 | > 3.8 | –

Compound | EC50 [µM] | IC50 [µM] | outcome
C(=C\CSc1ccccc1)/CSc1ccccc1 | > 13.8 | > 13.8 | –
O=c1c2c3c(sc2nc(CN2CCNCC2)n1-c1ccccc1)CCCC3 | > 100 | > 100 | –
COc1cc2c[n+](C)c3c4cc(OC)c(OC(C)C)cc4ccc3c2cc1OC | > 295 | 13.5 | –
COC(=O)C(Cc1ccc2c(c1)CCCC2)Cc1cc2c(cc1C(O)OC)CCC2 (stereo not drawn) | > 200 | 55 | –
c1cnc2c(c1)-n1cccc1C1(CCOCC1)NN2 | > 200 | > 200 | –
CN(C)CCNc1c2ccccc2nc2cccc([N+](=O)[O-])c12 | > 2 | 0.024 | –
Cc1cc(NS(=O)(=O)c2ccc(Nc3c4ccccc4nc4c(C(N)=O)cccc34)cc2)no1 | > 200 | 10.7 | –
c1ccc(C2=NOC3C4CCC(C4)C23)cc1 (stereo not drawn) | – | – | inactive
CN1C/C(=C/c2ccc(N(C)C)cc2)C(=O)/C(=C/c2ccc(N(C)C)cc2)C1 | > 200 | > 200 | –
CC(=O)OC12CCCCC1C1(CCCC1)NC2=O (stereo not drawn) | – | – | inactive
Cc1ccc(S(=O)(=O)N(CCC(=O)O)c2ccccc2)cc1 | > 200 | > 200 | –
Cc1nc2nnc(C)n2c2c1C(=O)Nc1ccccc1N2 | > 200 | > 200 | –
CC(=O)C1=C(O)CCC1=O | > 200 | > 200 | –
CC1CC(C)(C)N=C(C(C)CC(C)(C)C)O1 (stereo not drawn) | > 200 | 60.3 | –
COc1c(Sc2c(SCSc3cnc4ccccc4c3Sc3cnc4ccccc4c3OC)cnc3ccccc23)cnc2ccccc12 | > 100 | > 100 | –
COc1ccc2nc3cc([N+](=O)[O-])ccc3c(NCCO)c2c1 | > 200 | 1.05 | –
Cc1cc(=O)oc2c(CNC(CO)C(=O)O)c(O)ccc12 (stereo not drawn) | > 200 | > 200 | –
CC(=O)c1ccc(NC(=S)NN)cc1 | > 174 | 148 | inactive
CCCCC[C@@H]1OC(=O)/C(=C2/CC[C@@H](CCCC)O2)C(=O)[C@@H]1O | – | – | inactive
NS(=O)(=O)c1ccc(NC(=O)c2ccccc2SSc2ccccc2C(=O)Nc2ccc(S(N)(=O)=O)cc2)cc1 | 2.19 | 85.1 | –
CCOC(=O)/C(C#N)=C/c1ccc(F)cc1 | > 162 | > 162 | –
CC1SC(=S)N(c2ccc(Cl)cc2)C1=O (stereo not drawn) | > 138 | 67.6 | –
CC(CCC=C(c1cc(Cl)c(O)c(C(=O)O)c1)c1cc(Cl)c(O)c(C(=O)O)c1)C1CCC2[C@@H]3CC[C@@H]4CC(F)(F)CC[C@]4(C)C3CC[C@]12C (stereo partly drawn) | > 170 | 38 | –

Compound | EC50 [µM] | IC50 [µM] | outcome
O=c1[nH]c(=O)n(C2C=CC(CO)O2)cc1F (stereo not drawn) | > 200 | > 200 | –
Cc1nnnn1C12CC3CC(CC(C3)C1)C2 | – | – | inactive
Clc1ccc(NN(c2ccccc2)c2ccc(Cl)cc2)cc1 | > 200 | 115 | –
Clc1ccc(C2N3CCCCC3[C@@H]3c4[nH]c5ccccc5c4CCN23)cc1 (stereo partly drawn) | > 19.1 | > 19.1 | –
COc1ccc(-c2c3c(nc4nc(SCC(=O)c5ccc(Br)cc5)nc(N)c24)CCCC3)cc1OC | > 200 | 151 | –
COc1cc2c3c(c1)[nH]c(=S)n3C(=O)CS2 | > 28.8 | > 28.8 | –
C=CCCCCCCCCCCCC1CCC(CC)N1 (stereo not drawn) | > 240 | > 240 | –
CN(C)C(=S)NC(=S)Nc1ccc2ccccc2c1 | – | – | inactive
OC[C@H]1N=C(c2cccs2)OC1c1ccccc1 (stereo partly drawn) | > 200 | > 200 | –
CC1=C(C2CC(C)CC(OCOCc3ccccc3)O2)C(C)(C)CCC1 (stereo not drawn) | > 20 | > 20 | –
O=c1cc(-c2ccccc2)oc2ccc(Oc3nnnn3-c3ccccc3)cc12 | > 200 | > 200 | –
CSc1nc(-c2ccccc2)nc(=[N+]2CCOCC2)s1 | > 417 | 234 | –
CC(=O)/C=C\C(=O)NNS(=O)(=O)c1ccc(C)cc1 | > 891 | 832 | –
CC(=O)C1C(=O)C(=O)N(c2ccccc2C(C)C)C1=O (stereo not drawn) | – | – | inactive
Cc1cccc(N2C(=O)C=C(NC(CC(C)C)c3nc4ccccc4[nH]3)C2c2ccccc2)c1 (stereo not drawn) | > 200 | 17 | –
Cn1c(-c2csc(-c3ccc(Cl)cc3)n2)n[nH]c1=S | > 200 | > 200 | –
Cc1cc(Br)c(O)c(-c2cscn2)c1 | > 200 | 11.2 | –
NC(=O)CCNC(=O)c1ccc(NC(=O)c2ccccc2SC(=O)CCCC[n+]2ccccc2)cc1 | 18.6 | 45.7 | –
CC(C)c1ccc2c(c1)CCC1C(C)(C)[C@@H](O)CC[C@]21C (stereo partly drawn) | > 66.1 | 37.2 | –
CCOC(=O)C(C)(C)Oc1ccc(/C=C/C(=O)c2ccc(Cl)cc2)cc1 | > 10 | > 10 | –
COC(=O)NC(=O)c1cn(C2CCCCC2)c(=O)[nH]c1=O | > 123 | > 123 | –
CC(=O)OC1C(CN2CCOC2=O)OC(n2ccc(=O)[nH]c2=O)C1OC(C)=O (stereo not drawn) | > 200 | > 200 | –
CCC1=C(C(C)=O)[C@@H]2CCCCC(C(=O)OC)[C@@H]2C1=O (stereo partly drawn) | > 200 | > 200 | –

Compound | EC50 [µM] | IC50 [µM] | outcome
COC1(CC[C@H](C)COC2OC(CO)C(O)C(O)C2O)O[C@H]2C[C@H]3[C@@H]4CC=C5C[C@@H](OC6OC(CO)C(O)C(OC7OC(CO)C(O)C(O)C7O)C6OC6OC(C)C(O)C(O)C6O)CC[C@]5(C)[C@H]4CC[C@]3(C)[C@H]2[C@@H]1C (stereo partly drawn) | > 200 | 3.89 | –
CSC1=N/C(=C\c2ccco2)C(=O)N1CN1CCOCC1 | > 200 | 39.8 | –
COC(=O)[C@@H](NC(=O)N(CCC#N)CCNc1ccccc1)C(C)C | > 200 | > 200 | –
O=C1Nc2nccnc2C(=O)N2CCC[C@@H]12 | > 200 | > 200 | –
C=CCc1cc(-c2cc(CC=C)c(O)c(CN(CC)CC)c2)cc(CN(CC)CC)c1O | > 200 | 93.3 | –
CO/C(N)=C(\C#N)N=Cc1ccc2ccccc2c1 | > 200 | 37.2 | –
S=c1nc(C(c2ccccc2)c2ccccc2)[nH][nH]1 | > 135 | > 135 | –
CN(C)c1nc2n(CCO)c(-c3ccccc3)c(-c3ccccc3)nc-2c(=O)n1 | 30.9 | > 100 | –
COc1cc2c(oc(=O)c3c4oc([Si](C)(C)C)cc4cc(OC)c23)c2cccc(O)c12 | > 1.74 | > 1.74 | –
CCOC(=O)c1[nH]c2nc(SC)nc(Nc3ccccc3Cl)c2c1N | > 200 | 126 | –
O=C(CCC(=O)Nc1cccc(C(F)(F)F)c1)CC(=O)c1ccc2ccccc2c1 | – | – | inactive
CC(C)N=C1CCCC1C(=S)SSC(=S)C1CCCC1=NC(C)C (stereo not drawn) | > 200 | 10.7 | –
C=CC[P@]1(=O)O[C@H](c2ccccc2)C(C)N1C(C)C (stereo partly drawn) | – | – | inactive
COc1cc(/C=C2/SC(c3ccccc3)N(c3ccc(Cl)cc3)C2=O)cc(OC)c1OC (stereo not drawn) | – | – | inactive
CCOC(=O)c1c(NC(=O)C(F)(F)F)[nH]c(SSc2[nH]c(NC(=O)C(F)(F)F)c(C(=O)OCC)c2C(=O)OCC)c1C(=O)OCC | > 89.1 | 4.27 | –
COC(=O)CCc1ccc2c(c1)CC1(Cc3ccccc3C1)C2 | > 200 | 107 | –
CC12CC(=O)CC1(C)CC(=O)C2 (stereo not drawn) | > 537 | > 537 | –
Cc1ccc(/C=C/CO)cc1 | – | – | inactive
CC(=O)N1C(=O)/C(=C\C(=O)c2ccc([N+](=O)[O-])cc2)c2ccccc21 | > 200 | 2.82 | –
NC(=O)NNc1nc(-c2ccccc2)cs1 | > 200 | 87.1 | –
